In article PMC12305494, “Discovery of PXR Antagonist MI891 and PXR Degrader MI1013 and Their Roles in Hepatic Gene Regulation” (Journal of Medicinal Chemistry, 2025):

Experiments:
Experiment in all cases: Off-target kinase panel
Type in all cases: biochemical
[1] = target: ALK(h) (Homo sapiens, UniProt Q9UM73); conditions: MI891 @ 1 µM
Experimental: (§1) To evaluate the selectivity of MI891, an off-target profiling study was performed using a panel of 58 kinases.

[2] = target: ASK1(h) (Homo sapiens, UniProt Q99683); conditions: MI891 @ 1 µM
Experimental: as §1

[3] = target: CDK1/cyclinB(h) (Homo sapiens, UniProt P06493); conditions: MI891 @ 1 µM
Experimental: as §1

[4] = target: CDK2/cyclinA(h) (Homo sapiens, UniProt P24941); conditions: MI891 @ 1 µM
Experimental: as §1

[5] = target: CHK1(h) (Homo sapiens, UniProt O14757); conditions: MI891 @ 1 µM
Experimental: as §1

[6] = target: CK1γ1(h) (Homo sapiens, UniProt Q9HCP0); conditions: MI891 @ 1 µM
Experimental: as §1

[7] = target: CK2α2(h) (Homo sapiens, UniProt P19784); conditions: MI891 @ 1 µM
Experimental: as §1

[8] = target: CaMKI(h) (Homo sapiens, UniProt Q14012); conditions: MI891 @ 1 µM
Experimental: as §1

[9] = target: DRAK1(h) (Homo sapiens, UniProt Q9UEE5); conditions: MI891 @ 1 µM
Experimental: as §1

[10] = target: EGFR(h) (Homo sapiens, UniProt P00533); conditions: MI891 @ 1 µM
Experimental: as §1

[11] = target: EphA5(h) (Homo sapiens, UniProt P54756); conditions: MI891 @ 1 µM
Experimental: as §1

[12] = target: EphB4(h) (Homo sapiens, UniProt P54760); conditions: MI891 @ 1 µM
Experimental: as §1

[13] = target: Fyn(h) (Homo sapiens, UniProt P06241); conditions: MI891 @ 1 µM
Experimental: as §1

[14] = target: GSK3β(h) (Homo sapiens, UniProt P49841); conditions: MI891 @ 1 µM
Experimental: as §1

[15] = target: IGF-1R(h) (Homo sapiens, UniProt P08069); conditions: MI891 @ 1 µM
Experimental: as §1

[16] = target: T1, KDR(h) (Homo sapiens, UniProt P35968); conditions: MI891 @ 1 µM
T1 construct: purchased Eurofins (Millipore) KinaseProfiler, inferred from the naming style
Experimental: as §1

[17] = target: T2, Lyn(h) (Homo sapiens, UniProt P07948); conditions: MI891 @ 1 µM
T2 construct: purchased Eurofins (Millipore) KinaseProfiler, inferred from the naming style
Experimental: as §1

[18] = target: T3, MLK1(h) (Homo sapiens, UniProt P80192); conditions: MI891 @ 1 µM
T3 construct: purchased Eurofins (Millipore) KinaseProfiler, inferred from the naming style
Experimental: as §1

[19] = target: T4, MST1(h) (Homo sapiens, UniProt Q13043); conditions: MI891 @ 1 µM
T4 construct: purchased Eurofins (Millipore) KinaseProfiler, inferred from the naming style
Experimental: as §1

[20] = target: T5, Mnk2(h) (Homo sapiens, UniProt Q9HBH9); conditions: MI891 @ 1 µM
T5 construct: purchased Eurofins (Millipore) KinaseProfiler, inferred from the naming style
Experimental: as §1

[21] = target: T6, NEK2(h) (Homo sapiens, UniProt P51955); conditions: MI891 @ 1 µM
T6 construct: purchased Eurofins (Millipore) KinaseProfiler, inferred from the naming style
Experimental: as §1

[22] = target: T7, PAK2(h) (Homo sapiens, UniProt Q13177); conditions: MI891 @ 1 µM
T7 construct: purchased Eurofins (Millipore) KinaseProfiler, inferred from the naming style
Experimental: as §1

[23] = target: T8, PDGFRβ(h) (Homo sapiens, UniProt P09619); conditions: MI891 @ 1 µM
T8 construct: purchased Eurofins (Millipore) KinaseProfiler, inferred from the naming style
Experimental: as §1

[24] = target: T9, PI3 Kinase (p110b/p85a)(h) (Homo sapiens, UniProt P42338); conditions: MI891 @ 1 µM
T9 construct: purchased Eurofins (Millipore) KinaseProfiler, inferred from the naming style
Experimental: as §1

[25] = target: T10, PI3 Kinase (p110d/p85a)(h) (Homo sapiens, UniProt O00329); conditions: MI891 @ 1 µM
T10 construct: purchased Eurofins (Millipore) KinaseProfiler, inferred from the naming style
Experimental: as §1

[26] = target: T11, PI3 Kinase (p120g)(h) (Homo sapiens, UniProt P48736); conditions: MI891 @ 1 µM
T11 construct: purchased Eurofins (Millipore) KinaseProfiler, inferred from the naming style
Experimental: as §1

[27] = target: T12, PKA(h) (Homo sapiens, UniProt P17612); conditions: MI891 @ 1 µM
T12 construct: purchased Eurofins (Millipore) KinaseProfiler, inferred from the naming style
Experimental: as §1

[28] = target: T13, PKBα(h) (Homo sapiens, UniProt P31749); conditions: MI891 @ 1 µM
T13 construct: purchased Eurofins (Millipore) KinaseProfiler, inferred from the naming style
Experimental: as §1

[29] = target: T14, PKCθ(h) (Homo sapiens, UniProt Q04759); conditions: MI891 @ 1 µM
T14 construct: purchased Eurofins (Millipore) KinaseProfiler, inferred from the naming style
Experimental: as §1

[30] = target: T15, PKG1α(h) (Homo sapiens, UniProt Q13976); conditions: MI891 @ 1 µM
T15 construct: purchased Eurofins (Millipore) KinaseProfiler, inferred from the naming style
Experimental: as §1

[31] = target: T16, PRAK(h) (Homo sapiens, UniProt Q8IW41); conditions: MI891 @ 1 µM
T16 construct: purchased Eurofins (Millipore) KinaseProfiler, inferred from the naming style
Experimental: as §1

[32] = target: T17, Pim-1(h) (Homo sapiens, UniProt P11309)
T17 construct: purchased Eurofins (Millipore) KinaseProfiler, inferred from the naming style
Experimental: as §1

[33] = target: T18, Plk3(h) (Homo sapiens, UniProt Q9H4B4); conditions: MI891 @ 1 µM
T18 construct: purchased Eurofins (Millipore) KinaseProfiler, inferred from the naming style
Experimental: as §1

[34] = target: T19, ROCK-I(h) (Homo sapiens, UniProt Q13464); conditions: MI891 @ 1 µM
T19 construct: purchased Eurofins (Millipore) KinaseProfiler, inferred from the naming style
Experimental: as §1

[35] = target: T20, Rse(h) (Homo sapiens, UniProt Q06418); conditions: MI891 @ 1 µM
T20 construct: purchased Eurofins (Millipore) KinaseProfiler, inferred from the naming style
Experimental: as §1

[36] = target: T21, SAPK2a(h) (Homo sapiens, UniProt Q16539); conditions: MI891 @ 1 µM
T21 construct: purchased Eurofins (Millipore) KinaseProfiler, inferred from the naming style
Experimental: as §1

[37] = target: T22, TAK1(h) (Homo sapiens, UniProt O43318); conditions: MI891 @ 1 µM
T22 construct: purchased Eurofins (Millipore) KinaseProfiler, inferred from the naming style
Experimental: as §1

[38] = target: c-RAF(h) (Homo sapiens, UniProt P04049); conditions: MI891 @ 1 µM
Experimental: as §1

[39] = target: eEF-2K(h) (Homo sapiens, UniProt O00418); conditions: MI891 @ 1 µM
Experimental: as §1

[40] = target: T23, mTOR(h) (Homo sapiens, UniProt P42345); conditions: MI891 @ 1 µM
T23 construct: purchased Eurofins (Millipore) KinaseProfiler, inferred from the naming style
Experimental: as §1

[41] = target: T24, p70S6K(h) (Homo sapiens, UniProt P23443); conditions: MI891 @ 1 µM
T24 construct: purchased Eurofins (Millipore) KinaseProfiler, inferred from the naming style
Experimental: as §1

T17 sequence (P11309 whole entry): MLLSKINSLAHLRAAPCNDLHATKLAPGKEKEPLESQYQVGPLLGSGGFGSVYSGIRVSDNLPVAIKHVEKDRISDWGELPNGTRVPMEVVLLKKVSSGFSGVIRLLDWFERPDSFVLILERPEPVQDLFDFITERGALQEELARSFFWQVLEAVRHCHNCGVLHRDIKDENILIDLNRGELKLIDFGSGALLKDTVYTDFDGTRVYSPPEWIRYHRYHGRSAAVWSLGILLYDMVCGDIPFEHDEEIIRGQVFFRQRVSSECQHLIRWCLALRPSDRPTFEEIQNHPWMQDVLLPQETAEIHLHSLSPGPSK
T8 sequence (P09619 33-1106): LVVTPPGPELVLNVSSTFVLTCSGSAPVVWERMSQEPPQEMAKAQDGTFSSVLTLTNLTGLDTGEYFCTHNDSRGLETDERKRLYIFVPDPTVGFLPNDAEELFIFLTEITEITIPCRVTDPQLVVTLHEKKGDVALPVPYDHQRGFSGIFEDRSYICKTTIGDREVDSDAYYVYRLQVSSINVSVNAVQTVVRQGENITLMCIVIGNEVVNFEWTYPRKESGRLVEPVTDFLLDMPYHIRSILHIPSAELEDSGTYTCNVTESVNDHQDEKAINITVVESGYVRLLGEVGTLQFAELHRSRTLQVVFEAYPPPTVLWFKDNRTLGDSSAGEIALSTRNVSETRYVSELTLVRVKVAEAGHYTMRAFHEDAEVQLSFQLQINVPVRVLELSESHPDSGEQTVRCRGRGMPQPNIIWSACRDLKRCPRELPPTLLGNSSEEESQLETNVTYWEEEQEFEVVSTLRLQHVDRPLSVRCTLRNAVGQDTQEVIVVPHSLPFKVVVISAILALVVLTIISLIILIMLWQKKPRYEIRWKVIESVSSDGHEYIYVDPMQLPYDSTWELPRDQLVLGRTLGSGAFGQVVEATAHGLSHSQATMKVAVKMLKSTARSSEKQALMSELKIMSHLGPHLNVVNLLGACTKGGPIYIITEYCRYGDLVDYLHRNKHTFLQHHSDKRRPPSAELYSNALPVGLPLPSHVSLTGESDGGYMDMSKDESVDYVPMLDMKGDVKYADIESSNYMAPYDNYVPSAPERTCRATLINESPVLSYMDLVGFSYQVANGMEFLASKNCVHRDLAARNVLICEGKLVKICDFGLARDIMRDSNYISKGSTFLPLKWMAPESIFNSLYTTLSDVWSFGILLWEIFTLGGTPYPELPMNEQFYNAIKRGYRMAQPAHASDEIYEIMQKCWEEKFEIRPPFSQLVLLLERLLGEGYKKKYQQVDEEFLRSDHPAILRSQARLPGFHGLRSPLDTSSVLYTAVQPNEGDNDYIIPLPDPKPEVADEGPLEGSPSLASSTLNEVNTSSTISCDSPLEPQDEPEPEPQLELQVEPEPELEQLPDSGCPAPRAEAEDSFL
Sequence of GSK3β(h) (P49841 whole entry): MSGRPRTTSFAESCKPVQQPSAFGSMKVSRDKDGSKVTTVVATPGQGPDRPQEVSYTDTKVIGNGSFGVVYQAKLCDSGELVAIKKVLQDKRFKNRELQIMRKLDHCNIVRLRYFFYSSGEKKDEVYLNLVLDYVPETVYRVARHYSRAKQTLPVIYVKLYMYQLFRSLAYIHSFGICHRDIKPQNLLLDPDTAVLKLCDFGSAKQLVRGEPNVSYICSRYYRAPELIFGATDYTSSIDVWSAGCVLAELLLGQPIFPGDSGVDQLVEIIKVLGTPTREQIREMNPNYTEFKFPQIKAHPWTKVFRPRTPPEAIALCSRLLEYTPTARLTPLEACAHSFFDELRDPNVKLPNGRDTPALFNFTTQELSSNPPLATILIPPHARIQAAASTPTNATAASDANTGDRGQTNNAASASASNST
T16 sequence (Q8IW41 whole entry): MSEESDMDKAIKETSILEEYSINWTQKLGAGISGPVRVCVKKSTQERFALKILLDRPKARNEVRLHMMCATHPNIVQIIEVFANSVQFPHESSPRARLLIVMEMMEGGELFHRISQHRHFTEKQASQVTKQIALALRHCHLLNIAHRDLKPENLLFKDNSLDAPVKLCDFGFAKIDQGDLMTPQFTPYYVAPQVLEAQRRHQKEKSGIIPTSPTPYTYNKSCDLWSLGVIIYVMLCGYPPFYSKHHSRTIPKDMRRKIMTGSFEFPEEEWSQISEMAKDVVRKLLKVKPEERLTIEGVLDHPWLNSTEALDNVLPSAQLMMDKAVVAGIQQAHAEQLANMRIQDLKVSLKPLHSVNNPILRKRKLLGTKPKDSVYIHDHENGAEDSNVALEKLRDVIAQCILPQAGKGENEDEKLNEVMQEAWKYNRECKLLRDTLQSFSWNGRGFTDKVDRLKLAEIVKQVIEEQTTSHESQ
Sequence of EphA5(h) (P54756 25-1037): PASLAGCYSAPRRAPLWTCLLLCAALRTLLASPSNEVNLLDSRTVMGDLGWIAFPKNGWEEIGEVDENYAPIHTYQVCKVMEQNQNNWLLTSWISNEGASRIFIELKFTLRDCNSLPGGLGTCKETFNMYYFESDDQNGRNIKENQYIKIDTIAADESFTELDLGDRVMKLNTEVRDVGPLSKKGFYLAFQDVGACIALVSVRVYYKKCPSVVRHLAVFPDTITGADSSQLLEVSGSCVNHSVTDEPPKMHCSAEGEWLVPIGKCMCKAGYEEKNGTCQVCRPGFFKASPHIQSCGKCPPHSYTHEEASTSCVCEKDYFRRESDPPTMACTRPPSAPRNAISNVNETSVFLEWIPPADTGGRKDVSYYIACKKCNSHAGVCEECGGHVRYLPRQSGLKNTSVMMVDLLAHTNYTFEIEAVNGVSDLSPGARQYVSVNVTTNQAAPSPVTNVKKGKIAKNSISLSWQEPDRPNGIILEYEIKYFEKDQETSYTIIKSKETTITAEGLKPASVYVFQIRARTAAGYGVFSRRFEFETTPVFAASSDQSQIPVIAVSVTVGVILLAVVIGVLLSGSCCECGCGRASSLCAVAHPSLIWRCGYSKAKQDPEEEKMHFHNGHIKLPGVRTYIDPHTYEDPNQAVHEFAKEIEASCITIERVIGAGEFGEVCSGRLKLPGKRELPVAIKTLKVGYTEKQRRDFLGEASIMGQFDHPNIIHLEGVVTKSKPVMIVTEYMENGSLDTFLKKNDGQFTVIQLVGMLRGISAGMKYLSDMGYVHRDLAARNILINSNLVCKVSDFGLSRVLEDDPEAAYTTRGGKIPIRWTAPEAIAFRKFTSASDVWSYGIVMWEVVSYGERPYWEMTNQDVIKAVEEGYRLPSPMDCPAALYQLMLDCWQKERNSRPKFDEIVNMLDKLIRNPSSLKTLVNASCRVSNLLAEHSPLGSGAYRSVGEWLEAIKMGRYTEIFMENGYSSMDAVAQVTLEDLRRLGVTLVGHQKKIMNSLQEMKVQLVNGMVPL
T15 sequence (Q13976 whole entry): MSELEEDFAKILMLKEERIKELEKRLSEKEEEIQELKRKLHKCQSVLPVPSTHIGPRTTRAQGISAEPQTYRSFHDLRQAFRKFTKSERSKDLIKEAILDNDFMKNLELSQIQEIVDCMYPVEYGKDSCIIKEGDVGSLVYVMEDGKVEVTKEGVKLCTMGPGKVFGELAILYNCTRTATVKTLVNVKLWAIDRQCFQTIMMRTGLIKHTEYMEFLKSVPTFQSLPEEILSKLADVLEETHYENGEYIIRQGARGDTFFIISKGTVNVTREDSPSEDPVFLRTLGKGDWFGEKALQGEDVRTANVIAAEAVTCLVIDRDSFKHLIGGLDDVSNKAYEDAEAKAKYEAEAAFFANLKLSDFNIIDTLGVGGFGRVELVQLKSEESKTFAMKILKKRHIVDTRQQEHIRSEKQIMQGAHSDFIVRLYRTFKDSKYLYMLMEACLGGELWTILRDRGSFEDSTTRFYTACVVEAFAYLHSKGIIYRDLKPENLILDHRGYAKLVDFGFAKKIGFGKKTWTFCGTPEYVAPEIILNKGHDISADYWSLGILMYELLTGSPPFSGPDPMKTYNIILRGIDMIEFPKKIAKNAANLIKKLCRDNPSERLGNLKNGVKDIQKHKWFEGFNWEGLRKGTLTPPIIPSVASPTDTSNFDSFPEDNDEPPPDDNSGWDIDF
T18 sequence (Q9H4B4 whole entry): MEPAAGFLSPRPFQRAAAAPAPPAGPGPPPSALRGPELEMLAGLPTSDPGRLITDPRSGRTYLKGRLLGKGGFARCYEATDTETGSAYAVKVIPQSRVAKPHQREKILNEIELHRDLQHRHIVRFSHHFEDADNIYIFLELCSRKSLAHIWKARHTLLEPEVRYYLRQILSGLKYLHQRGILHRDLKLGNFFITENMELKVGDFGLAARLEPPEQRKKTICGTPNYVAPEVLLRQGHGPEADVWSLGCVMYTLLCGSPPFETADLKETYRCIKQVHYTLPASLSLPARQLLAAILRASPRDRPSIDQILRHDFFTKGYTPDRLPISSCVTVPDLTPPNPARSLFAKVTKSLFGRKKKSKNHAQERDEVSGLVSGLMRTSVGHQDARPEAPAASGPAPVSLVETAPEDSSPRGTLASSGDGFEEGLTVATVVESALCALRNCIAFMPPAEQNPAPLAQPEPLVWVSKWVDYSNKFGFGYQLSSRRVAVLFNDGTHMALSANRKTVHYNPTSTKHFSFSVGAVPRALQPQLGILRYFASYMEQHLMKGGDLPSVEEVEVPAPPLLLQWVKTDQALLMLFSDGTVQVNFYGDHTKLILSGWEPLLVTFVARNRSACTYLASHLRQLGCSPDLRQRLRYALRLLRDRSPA
Sequence of CK2α2(h) (P19784 whole entry): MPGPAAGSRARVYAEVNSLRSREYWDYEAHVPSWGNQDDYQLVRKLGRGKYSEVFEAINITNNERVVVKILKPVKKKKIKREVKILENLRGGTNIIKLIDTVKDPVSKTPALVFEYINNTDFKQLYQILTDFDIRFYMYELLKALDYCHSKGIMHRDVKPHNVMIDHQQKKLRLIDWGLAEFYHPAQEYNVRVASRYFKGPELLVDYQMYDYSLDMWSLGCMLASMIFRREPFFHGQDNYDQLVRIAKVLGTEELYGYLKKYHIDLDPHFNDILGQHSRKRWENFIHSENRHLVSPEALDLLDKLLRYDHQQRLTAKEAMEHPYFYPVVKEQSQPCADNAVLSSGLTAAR

## NC(=O)c1cc(Cn2cc(-c3c(-c4ccc(Cl)cc4)nc4c(F)cc(F)cn34)nn2)ccc1Cl [Compound 11, 2-Chloro-5-((4-(2-(4-chlorophenyl)-6,8-difluoroimidazo[1,2-a]pyridin-3-yl)-1H-1,2,3-triazol-1-yl)methyl)-benzamide]
[1]
  activity at 1 µM: 76%
[2]
  activity at 1 µM: 91%
[3]
  activity at 1 µM: 96%
[4]
  activity at 1 µM: 106%
[5]
  activity at 1 µM: 93%
[6]
  activity at 1 µM: 100%
[7]
  activity at 1 µM: 109%
[8]
  activity at 1 µM: 95%
[9]
  activity at 1 µM: 105%
[10]
  activity at 1 µM: 103%
[11]
  activity at 1 µM: 106%
[12]
  activity at 1 µM: 97%
[13]
  activity at 1 µM: 81%
[14]
  activity at 1 µM: 99%
[15]
  activity at 1 µM: 99%
[16]
  activity at 1 µM: 86%
[17]
  activity at 1 µM: 88%
[18]
  activity at 1 µM: 104%
[19]
  activity at 1 µM: 94%
[20]
  activity at 1 µM: 86%
[21]
  activity at 1 µM: 103%
[22]
  activity at 1 µM: 84%
[23]
  activity at 1 µM: 86%
[24]
  activity at 1 µM: 100%
[25]
  activity at 1 µM: 98%
[26]
  activity at 1 µM: 102%
[27]
  activity at 1 µM: 108%
[28]
  activity at 1 µM: 100%
[29]
  activity at 1 µM: 90%
[30]
  activity at 1 µM: 85%
[31]
  activity at 1 µM: 81%
[32]; MI891 @ 1 µM
  activity at 1 µM: 53%
[32]; at 1 μM
  inhibition at 1 µM: 53%
[33]
  activity at 1 µM: 113%
[34]
  activity at 1 µM: 97%
[35]
  activity at 1 µM: 109%
[36]
  activity at 1 µM: 99%
[37]
  activity at 1 µM: 90%
[38]
  activity at 1 µM: 101%
[39]
  activity at 1 µM: 112%
[40]
  activity at 1 µM: 96%
[41]
  activity at 1 µM: 105%
